In brackets after ≈: the same amount, converted by molar mass. Several values for one entry are separate records, joined by “and”; a condition that tells them apart may be missing. Equal entries are not always repeated. Where two headings read alike, the source gives them in different places.
Experiments:
K. pneumoniae = details: ref 6 (Hameed P et al., 2024); cited from earlier work
P. aeruginosa = system: P. aeruginosa; set-up: method as in ref 6 (Hameed P et al., 2024); details: ref 6 (Hameed P et al., 2024); cited from earlier work
E. coli gyrase = target: T1, E. coli gyrase (Escherichia coli, UniProt P0AES4+P0AES6); format: biochemical; details: gyrase cleavage-complex assay
T1 construct: purchased Inspiralis
Experimental: Reactions were stopped by adding 3.8 μL of a stop solution containing 0.8 μL Proteinase K (20 mg/mL) and 3 μL SDS (2%), followed by incubation at 37 °C for 60 min. Afterward, 4 μL of STEB loading buffer was added, and samples were run on pre-stained 0.8% agarose gels containing 0.4 μg/mL ethidium bromide. […] The % nicked and linear DNA formed with varying compound concentrations was plotted for comparison.

[1] = system: E. coli MG1655 GyrA D82N, ParC D79N; experiment: microbe, parasite or virus in culture; format: cell-based; details: Escherichia coli
E. coli = details: ref 6 (Hameed P et al., 2024); cited from earlier work
K. pneumoniae KPNIH1 = experiment: microbe, parasite or virus in culture; format: cell-based; details: Klebsiella pneumoniae
[2] = target: S. aureus topoisomerase IV (Staphylococcus aureus, UniProt P0C1S7+P0C1U9); experiment: biochemical; set-up: Topo IV decatenation inhibition response: unit not given here
Experimental: Assays with P. aeruginosa topoisomerase IV (3 nM) were conducted in a similar buffer but with 50 mM HEPES-KOH (pH 7.9), 100 mM potassium glutamate, 6 mM magnesium acetate, 6 mM DTT, 1 mM ATP, 2 mM spermidine, and 50 μg/mL albumin. For S. aureus topoisomerase IV assay, the reactions contained 4 nM enzyme in an assay buffer composed of 50 mM Tris-HCl (pH 7.5), 5 mM MgCl₂, 5 mM DTT, 1.5 mM ATP, 350 mM potassium glutamate, and 0.05 mg/mL albumin. The procedures followed were consistent with those used in the supercoiling assays. Decatenated minicircles were resolved on 0.8% agarose gels, while the kDNA substrate remained in the wells. Gels were stained with 0.8 μg/mL ethidium bromide solution for 10 min, followed by destaining. DNA bands were visualized using a gel documentation system, and compound inhibition analysis was carried out using the same procedures described for the supercoiling assays.

[3] = target: E. coli GyrA S83L mutant gyrase (Escherichia coli, UniProt P0AES4+P0AES6, S83L); experiment: biochemical; format: biochemical; details: for Gyrase supercoiling inhibition response: GyrA S83L gyrase
E. coli ATCC 25922 [4] = experiment: In vitro spontaneous resistance frequency; format: cell-based
Experimental: (§1) Spontaneous resistance frequencies to BWC0977 were evaluated in E. coli ATCC 25922, P. aeruginosa ATCC 27853, and A. baumannii ATCC 19606. Mid-logarithmic phase cultures (~10^9 CFU/mL) were plated onto Luria-Bertani agar containing BWC0977 at 4×, 8×, and 16× the respective MICs. Plates were incubated at 37 °C for 24–36 h, and resistance frequencies were estimated by counting colony-forming units (CFUs) on the drug-containing plates. MICs of the isolated colonies were determined, and the gyrA, gyrB, parC, and parE genes were sequenced to assess for target-site mutations.

A. baumannii ATCC 19606 = experiment: In vitro spontaneous resistance frequency; format: cell-based
Experimental: as §1

A. baumannii = system: A. baumannii; set-up: method as in ref 6 (Hameed P et al., 2024); details: ref 6 (Hameed P et al., 2024); cited from earlier work
[5] = target: E. coli GyrA D82N mutant gyrase (Escherichia coli, UniProt P0AES4+P0AES6, D82N); experiment: biochemical; format: biochemical; details: for Gyrase supercoiling inhibition response: GyrA D82N gyrase
E. coli ATCC 25922 [6] = experiment: Resistant mutant generation by serial passage method; format: cell-based; details: Escherichia coli, read-out: MIC, serial passage
E. coli ATCC 25922 [7] = details: >4× MIC; cited from earlier work

## Cn1c(=O)ccc2ccc(F)c(CCNC[C@H]3CN(c4cnc5c(n4)NC(=O)CO5)C(=O)O3)c21 [BWC0977]
K. pneumoniae
  MIC90 against diverse global isolates: 2 µg/mL (≈ 4.27 µM)
P. aeruginosa
  MIC90 against diverse global isolates: 1 µg/mL (≈ 2.13 µM)
E. coli gyrase
  type of DNA breaks induced: single-strand DNA breaks
[1]
  MIC: 7.5 µg/mL (≈ 16 µM)
E. coli
  MIC90 against diverse global isolates: 0.5 µg/mL (≈ 1.07 µM)
K. pneumoniae KPNIH1
  MIC: 1 µg/mL (≈ 2.13 µM)
[2]
  IC50: 110 nM
[2]; S. aureus topo IV, compound 0.0037 μM, source data Fig 2C, read-out: Topo IV decatenation inhibition response
  inhibition at 0.0037 µM: 0%
[2]; S. aureus topo IV, compound 0.0988 μM, source data Fig 2C, listed as 977, 0.0988 µM
  Topo IV decatenation inhibition response: 31.67 and 43.21 and 56.17
[2]; S. aureus topo IV, compound 0.2963 μM, source data Fig 2C, listed as 977, 0.2963 µM
  Topo IV decatenation inhibition response: 76.23 and 76.66
[2]; S. aureus topo IV, compound 0.2963 μM, source data Fig 2C, read-out: Topo IV decatenation inhibition response
  inhibition at 0.2963 µM: 67%
[2]; S. aureus topo IV, compound 0.8889 μM, source data Fig 2C, listed as 977, 0.8889 µM
  Topo IV decatenation inhibition response: 92.92 and 90.9
[2]; S. aureus topo IV, compound 0.8889 μM, source data Fig 2C, read-out: Topo IV decatenation inhibition response
  inhibition at 0.8889 µM: 89.7%
[2]; S. aureus topo IV, compound 2.6667 μM, source data Fig 2C, read-out: Topo IV decatenation inhibition response
  inhibition at 2.6667 µM: 98.1%
[2]; S. aureus topo IV, compound 8 μM, source data Fig 2C, listed as 977, 8 µM
  Topo IV decatenation inhibition response: 99.9 and 99.56
[2]; S. aureus topo IV, compound 8 μM, source data Fig 2C, read-out: Topo IV decatenation inhibition response
  inhibition at 8 µM: 99.7%
[3]; Fig. 6, read-out: IC50 S83L gyrase supercoiling
  IC50: 3 nM
[3]; compound 0.0005 µM, source data Fig 6A, 0.0005 µM
  Gyrase supercoiling inhibition response: 7.40
[3]; compound 0.0014 µM, source data Fig 6A, 0.0014 µM
  Gyrase supercoiling inhibition response: 20.69
[3]; compound 0.0041 µM, source data Fig 6A, 0.0041 µM
  Gyrase supercoiling inhibition response: 57.16
[3]; compound 0.012 µM, source data Fig 6A, 0.012 µM
  Gyrase supercoiling inhibition response: 82.23
[3]; compound 0.037 µM, source data Fig 6A, 0.037 µM
  Gyrase supercoiling inhibition response: 88.47
[3]; compound 0.111 µM, source data Fig 6A, 0.111 µM
  Gyrase supercoiling inhibition response: 97.88
[3]; compound 0.333 µM, source data Fig 6A, 0.333 µM
  Gyrase supercoiling inhibition response: 98.84
[3]; compound 1 µM, source data Fig 6A, 1 µM
  Gyrase supercoiling inhibition response: 98.71
[3]; compound 3 µM, source data Fig 6A, 3 µM
  Gyrase supercoiling inhibition response: 96.44
[3]; quinolone-resistant S83L vs WT
  potency shift relative to WT: < 3 fold
[3]; read-out: Gyrase supercoiling inhibition response, GyrA S83L gyrase, compound 0.0014 µM, source data Fig 6A
  inhibition at 0.0014 µM: 35%
[3]; read-out: Gyrase supercoiling inhibition response, GyrA S83L gyrase, compound 0.0041 µM, source data Fig 6A
  inhibition at 0.0041 µM: 60.7%
[3]; read-out: Gyrase supercoiling inhibition response, GyrA S83L gyrase, compound 0.012 µM, source data Fig 6A
  inhibition at 0.012 µM: 74.3%
[3]; read-out: Gyrase supercoiling inhibition response, GyrA S83L gyrase, compound 0.037 µM, source data Fig 6A
  inhibition at 0.037 µM: 90.2%
[3]; read-out: Gyrase supercoiling inhibition response, GyrA S83L gyrase, compound 0.111 µM, source data Fig 6A
  inhibition at 0.111 µM: 91%
[3]; read-out: Gyrase supercoiling inhibition response, GyrA S83L gyrase, compound 0.333 µM, source data Fig 6A
  inhibition at 0.333 µM: 97.8%
[3]; read-out: Gyrase supercoiling inhibition response, GyrA S83L gyrase, compound 1 µM, source data Fig 6A
  inhibition at 1 µM: 99.5%
[3]; read-out: Gyrase supercoiling inhibition response, GyrA S83L gyrase, compound 3 µM, source data Fig 6A
  inhibition at 3 µM: 97.9%
E. coli ATCC 25922 [4]; 4× MIC
  resistance frequency: less than 1 × 10^−9
E. coli ATCC 25922 [4]; mutants selected with ciprofloxacin 0.05 μg/mL
  sensitivity of ciprofloxacin-resistant mutants (GyrA S83L or D87Y): remained sensitive
A. baumannii ATCC 19606; 0.6 μg/mL (4× MIC)
  number of resistant mutant colonies: five
A. baumannii ATCC 19606; 4× MIC
  resistance frequency: less than 1 × 10^−9
A. baumannii ATCC 19606; colonies selected at 4× MIC of the same compound
  MIC increase of resistant colonies: four-fold
A. baumannii
  MIC90 against diverse global isolates: 1 µg/mL (≈ 2.13 µM)
[5]; Fig. 6, read-out: IC50 D82N gyrase supercoiling
  IC50: 8.07 µM
[5]; compound 4.444 µM, source data Fig 6A/6B, 4.444 µM
  Gyrase supercoiling inhibition response: 46.06 and 47.14
[5]; compound 13.333 µM, source data Fig 6A/6B, 13.333 µM
  Gyrase supercoiling inhibition response: 41.37 and 59.15 and 62.03
[5]; compound 40 µM, source data Fig 6A/6B, 40 µM
  Gyrase supercoiling inhibition response: 73.59 and 74.94
[5]; compound 120 µM, source data Fig 6A/6B, 120 µM
  Gyrase supercoiling inhibition response: 87.19 and 87.16
[5]; GyrA D82N vs WT
  reduction in inhibition potency compared to wildtype gyrase: > 500 fold
[5]; read-out: Gyrase supercoiling inhibition response, GyrA D82N gyrase, compound 4.444 µM, source data Fig 6A/6B
  inhibition at 4.444 µM: 30.7%
[5]; read-out: Gyrase supercoiling inhibition response, GyrA D82N gyrase, compound 40 µM, source data Fig 6A/6B
  inhibition at 40 µM: 55.7%
[5]; read-out: Gyrase supercoiling inhibition response, GyrA D82N gyrase, compound 120 µM, source data Fig 6A/6B
  inhibition at 120 µM: 78.8%
E. coli ATCC 25922 [6]; ATCC25922, 24 h
  MIC: 0.015 µg/mL (≈ 0.032 µM)
E. coli ATCC 25922 [6]; ATCC25922, 288 h
  MIC: 0.125 µg/mL (≈ 0.267 µM)
E. coli ATCC 25922 [7]
  resistant colonies on exposure: no resistant colonies
